pEC50, pIC50: −log10 of the molar value.
What follows are compounds tested against PRMT5/MEP50 (Homo sapiens (Human), UniProt O14744) (assay: PRMT5 Biochemical Assay (PRMT5/MEP50 enzyme assay on peptide substrate, 3H-SAM Flashplate)). Settings: PRMT5/MEP50 4 nM, 3H-SAM 75 nM, peptide 40 nM.
From the text: S-adenosylmethionine (SAM), S-adenosylhomocysteine (SAH), bicine, KCl, Tween20, dimethylsulfoxide (DMSO), bovine skin gelatin (BSG), and Tris(2-carboxyethyl)phosphine hydrochloride solution (TCEP) were purchased from Sigma-Aldrich at the highest level of purity possible. ^3H-SAM was purchase from American Radiolabeled Chemicals with a specific activity of 80 Ci/mmol. 384-well streptavidin Flashplates were purchased from PerkinElmer.
Peptide representative of human histone H4 residues 1-15 was synthesized with a C-terminal linker-affinity tag motif and a C-terminal amide cap by 21st Century Biochemicals. The peptide was high high-performance liquid chromatography (HPLC) purified to greater than 95% purity and confirmed by liquid chromatography mass spectrometry (LC-MS). The sequence was Ac-[…][K-Biot]-amide (SEQ ID NO.:3).
Full-length human PRMT5 (NM_006109.3) transcript variant 1 clone was amplified from a fetal brain cDNA library, incorporating flanking 5′ sequence encoding a FLAG tag ([…]) (SEQ ID NO.:4) fused directly to Ala 2 of PRMT5. Full-length human MEP50 (NM_024102) clone was amplified from a human testis cDNA library incorporating a 5′ sequence encoding a 6-histidine tag (MHHHHHH) (SEQ ID NO.:5) fused directly to Arg 2 of MEP50. The amplified genes were sublconed into pENTR/D/TEV (Life Technologies) and subsequently transferred by Gateway™ attL×attR recombination to pDEST8 baculvirus expression vector (Life Technologies).
Recombinant baculovirus and Baculovirus-Infected Insect Cells (BIIC) were generated according to Bac-to-Bac kit instructions (Life Technologies) and Wasilko, 2006, respectively. Protein over-expression was accomplished by infecting exponentially growing Spodoptera frugiperda (SF9) cell culture at 1.2×10^6 cell/ml with a 5000 fold dilution of BIIC stock. Infections were carried out at 27° C. for 72 hours, harvested by centrifugation, and stored at −80° C. for purification.
Flag-PRMT5/6His-MeP50 was eluted with 300 mM Imidazole in the same buffer. The purity of recovered protein was 87%. Reference: Wasilko, D. J. and S. E. Lee: “TIPS: titerless infected-cells preservation and scale-up” Bioprocess J., 5 (2006), pp. 29-32.
General Procedure for PRMT5/MEP50 Enzyme Assays on Peptide Substrates.
The assays were all performed in a buffer consisting of 20 mM Bicine (pH=7.6), 1 mM TCEP, 0.005% BSG, and 0.002% Tween20, prepared on the day of use. Compounds in 100% DMSO (1 ul) were spotted into a polypropylene 384-well V-bottom plates (Greiner) using a Platemate Plus outfitted with a 384-channel head (Thermo Scientific). DMSO (1 ul) was added to Columns 11, 12, 23, 24, rows A-H for the maximum signal control and 1 ul of SAH, a known product and inhibitor of PRMT5/MEP50, was added to columns 11, 12, 23, 24, rows I-P for the minimum signal control. A cocktail (40 ul) containing the PRMT5/MEP50 enzyme and the peptide was added by Multidrop Combi (Thermo-Fisher). The compounds were allowed to incubate with PRMT5/MEP50 for 30 min at 25 degrees Celsius, then a cocktail (10 ul) containing ^3H-SAM was added to initiate the reaction (final volume=51 ul). The final concentrations of the components were as follows: PRMT5/MEP50 was 4 nM, ^3H-SAM was 75 nM, peptide was 40 nM, SAH in the minimum signal control wells was 100 uM, and the DMSO concentration was 1%. The assays were stopped by the addition of non-radioactive SAM (10 ul) to a final concentration of 600 uM, which dilutes the ^3H-SAM to a level where its incorporation into the peptide substrate is no longer detectable. 50 ul of the reaction in the 384-well polypropylene plate was then transferred to a 384-well Flashplate and the biotinylated peptides were allowed to bind to the streptavidin surface for at least 1 hour before being washed three times with 0.1% Tween20 in a Biotek ELx405 plate washer. […]

Chain of PRMT5/MEP50 (O14744 other isoform, or with tags, fused parts or gaps): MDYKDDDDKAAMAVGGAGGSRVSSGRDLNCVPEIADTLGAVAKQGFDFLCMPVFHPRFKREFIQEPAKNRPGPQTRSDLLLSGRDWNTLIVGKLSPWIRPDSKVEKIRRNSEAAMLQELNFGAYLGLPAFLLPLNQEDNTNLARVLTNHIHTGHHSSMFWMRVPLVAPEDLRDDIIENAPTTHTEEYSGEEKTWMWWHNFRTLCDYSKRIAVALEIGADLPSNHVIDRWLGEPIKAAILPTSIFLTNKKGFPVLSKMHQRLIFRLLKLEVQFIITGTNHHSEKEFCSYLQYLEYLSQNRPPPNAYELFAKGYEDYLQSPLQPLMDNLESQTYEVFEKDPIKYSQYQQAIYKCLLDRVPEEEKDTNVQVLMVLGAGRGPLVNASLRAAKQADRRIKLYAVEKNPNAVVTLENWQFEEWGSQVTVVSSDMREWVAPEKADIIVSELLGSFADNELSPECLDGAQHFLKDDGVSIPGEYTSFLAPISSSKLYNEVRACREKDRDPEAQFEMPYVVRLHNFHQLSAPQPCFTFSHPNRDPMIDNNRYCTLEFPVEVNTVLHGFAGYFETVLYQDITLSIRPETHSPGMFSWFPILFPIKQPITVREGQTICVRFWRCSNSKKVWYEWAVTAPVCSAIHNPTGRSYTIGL
Chain of PRMT5/MEP50 (Q9BQA1 other isoform, or with tags, fused parts or gaps partner): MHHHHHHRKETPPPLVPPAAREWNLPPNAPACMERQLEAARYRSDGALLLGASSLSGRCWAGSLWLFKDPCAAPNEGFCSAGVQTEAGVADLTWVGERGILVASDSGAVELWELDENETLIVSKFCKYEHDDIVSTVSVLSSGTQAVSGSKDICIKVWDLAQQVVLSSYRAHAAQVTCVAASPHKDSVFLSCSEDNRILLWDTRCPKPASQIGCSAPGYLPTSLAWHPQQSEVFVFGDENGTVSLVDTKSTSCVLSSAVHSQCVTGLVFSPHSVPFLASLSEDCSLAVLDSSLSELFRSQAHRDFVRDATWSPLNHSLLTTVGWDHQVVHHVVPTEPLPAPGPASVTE

How did the pIC50 turn out when `CN1CCOc2cccc(OCC(=O)NCC(O)CN3Cc4ccccc4C3)c21` (stereo not shown) [Compound 10, N-(2-hydroxy-3-(isoindolin-2-yl)propyl)-2-((4-methyl-3,4-dihydro-2H-benzo[b][1,4]oxazin-5-yl)oxy)acetamide] was run?
The pIC50 was 6.00 to 7.00.

How did the pIC50 turn out when `CN1CCOc2cccc(OCC(=O)NC[C@H](O)CN3Cc4ccccc4C3)c21` [Compound 26] was run?
Its pIC50 is 6.00 to 7.00.

How did the pIC50 turn out when `CN(C)S(=O)(=O)c1ccccc1OCC(=O)NC[C@@H](O)CN1Cc2ccccc2C1` [Compound 21] was run?
Its pIC50 is 6.00 to 7.00.

With `C[C@H](Oc1cccc2cccnc12)C(=O)NC[C@H](O)CN1Cc2ccccc2C1` [Compound 1] as the compound, how does the pIC50 read?
The pIC50 was 5.00 to 6.00.

How did the pIC50 turn out when `C[C@@H](Oc1cccc2cccnc12)C(=O)NC[C@@H](O)CN1Cc2ccccc2C1` [Compound 3, (R)—N—((R)-2-hydroxy-3-(isoindolin-2-yl)propyl)-2-(quinolin-8-yloxy)propanamide] was run?
The pIC50 was 5.00 to 6.00.

`C[C@H](Oc1cccc2cccnc12)C(=O)NC[C@@H](O)CN1Cc2ccccc2C1` [Compound 6] was tested. Which pIC50 did it give?
The pIC50 was under 5.00.

`Cn1ncc2ccc(OCC(=O)NC[C@@H](O)CN3Cc4ccccc4C3)cc21` [Compound 25] was tested. Which pIC50 did it give?
The pIC50 was 4.30 to 5.00.

`Cn1cnc2ccc(-c3cccc(OC[C@@H](O)CN4Cc5ccccc5C4)c3)cc21` [Compound 14] was tested. Which pIC50 did it give?
The pIC50 was 4.30 to 5.00.

`Cn1ncc2ccc(OCC(=O)NC[C@H](O)CN3Cc4ccccc4C3)cc21` [Compound 27] was tested. Which pIC50 did it give?
Its pIC50 is 6.00 to 7.00.

`CN1CCOc2cccc(OCC(=O)NC[C@@H](O)CN3Cc4ccccc4C3)c21` [Compound 22] was tested. Which pIC50 did it give?
Its pIC50 is 6.00 to 7.00.

How did the pIC50 turn out when `CN(C)S(=O)(=O)c1ccccc1OCC(=O)NC[C@H](O)CN1Cc2ccccc2C1` [Compound 23] was run?
Its pIC50 is over 7.00.

`O=C(NC[C@H](O)CN1Cc2ccccc2C1)c1ccnc(NC2CCOCC2)c1` [Compound 30] was tested. Which pIC50 did it give?
Its pIC50 is over 7.00.

How did the pIC50 turn out when `Cn1cnc2ccc(-c3cccc(OC[C@H](O)CN4Cc5ccccc5C4)c3)cc21` [Compound 17, (R)-1-(isoindolin-2-yl)-3-(3-(1-methyl-1H-benzo[d]imidazol-6-yl)phenoxy)propan-2-ol] was run?
The pIC50 was 5.00 to 6.00.

Each compound was assayed on Symmetric Di-Methyl Arginine in Z-138 cells (assay: Z-138 Methylation Assay (In Cell Western for symmetric di-methyl arginine)). Settings: Homo sapiens, 96 hours incubation, read-out: ICW EC50.
Format: cell-based
From the text: [formula] Where top and bottom are the normally allowed to float, but may be fixed at 100 or 0 respectively in a 3-parameter fit. The Hill Coefficient normally allowed to float but may also be fixed at 1 in a 3-parameter fit. Y is the % inhibition and X is the compound concentration. Z-138 Methylation Assay
Z-138 suspension cells were purchased from ATCC (American Type Culture Collection, Manassas, Va.). RPMI/Glutamax medium, penicillin-streptomycin, heat inactivated fetal bovine serum, and D-PBS were purchased from Life Technologies, Grand Island, N.Y., USA. Odyssey blocking buffer, 800CW goat anti-rabbit IgG (H+L) antibody, and Licor Odyssey infrared scanner were purchased from Licor Biosciences, Lincoln, Nebr., USA. Symmetric di-methyl arginine antibody was purchased from EMD Millipore, Billerica, Mass., USA. […]
First, the ratio for each well was determined by:
Each plate included fourteen control wells of DMSO only treatment (minimum inhibition) as well as fourteen control wells for maximum inhibition treated with 3 μM of a reference compound (Background wells). The average of the ratio values for each control type was calculated and used to determine the percent inhibition for each test well in the plate. […] Percent inhibition was determined and IC50 curves were generated using triplicate wells per concentration of compound. […]

`CN1CCOc2cccc(OCC(=O)NCC(O)CN3Cc4ccccc4C3)c21` (stereo not shown) [Compound 10, N-(2-hydroxy-3-(isoindolin-2-yl)propyl)-2-((4-methyl-3,4-dihydro-2H-benzo[b][1,4]oxazin-5-yl)oxy)acetamide] was tested. Which pEC50 did it give?
Its pEC50 is 6.00 to 7.00.

With `O=C(NCC(O)CN1Cc2ccccc2C1)c1cccc(NC2CCOCC2)c1` (stereo not shown) [Compound 8] as the compound, how does the pEC50 read?
Its pEC50 is 6.00 to 7.00.

What follows are compounds tested on Z-138 cell line (assay: Z-138 Proliferation Assay (Cell Titer Glo)). Settings: Homo sapiens, 120 h; Z-138 cells, 5 days, top concentration 20 μM.
Format: cell-based
From the text: [formula] Z-138 Proliferation Assay
Z-138 suspension cells were purchased from ATCC (American Type Culture Collection, Manassas, Va.). RPMI/Glutamax medium, penicillin-streptomycin, heat inactivated fetal bovine serum were purchased from Life Technologies, Grand Island, N.Y., USA. V-bottom polypropylene 384-well plates were purchased from Greiner Bio-One, Monroe, N.C., USA. Cell culture 384-well white opaque plates were purchased from Perkin Elmer, Waltham, Mass., USA. Cell-Titer Glo® was purchased from Promega Corporation, Madison, Wis., USA. SpectraMax M5 plate reader was purchased from Molecular Devices LLC, Sunnyvale, Calif., USA. […]
For the assessment of the effect of compounds on the proliferation of the Z-138 cell line, exponentially growing cells were plated in 384-well white opaque plates at a density of 10,000 cells/ml in a final volume of 50 μl of assay medium. […] Cell viability was measured by quantitation of ATP present in the cell cultures, adding 35 μl of Cell Titer Glo® reagent to the cell plates. Luminescence was read in the SpectraMax M5 microplate reader. The concentration of compound inhibiting cell viability by 50% was determined using a 4-parametric fit of the normalized dose response curves.

How did the pEC50 turn out when `CN1CCOc2cccc(OCC(=O)NCC(O)CN3Cc4ccccc4C3)c21` (stereo not shown) [Compound 10, N-(2-hydroxy-3-(isoindolin-2-yl)propyl)-2-((4-methyl-3,4-dihydro-2H-benzo[b][1,4]oxazin-5-yl)oxy)acetamide] was run?
The pEC50 was under 4.70.

From patent publication US9732072B2, “PRMT5 inhibitors and uses thereof” (Epizyme, Inc., priority 2012, dated 2017)
